# What was measured:
# TNF-α production [1] = assay: Inhibition of TNF-α production following LPS-stimulation of human whole blood; type: cell-based; conditions: LPS-stimulated, read-out: IC50 for inhibiting production of TNF-α following LPS-stimulation of human whole blood
# IL1β production = assay: LPS-stimulated production of IL1β by PBMC; conditions: result in words
# TNF-α production [2] = assay: Inhibition of TNF-α production following LPS-stimulation of human PBMC; type: cell-based; conditions: for inhibition of LPS-stimulated production of TNF-α by PBMC: result in words; for IC50: human PBMC, LPS-stimulated, read-out: IC50 for inhibiting production of TNF-α following LPS-stimulation of PBMC
# IL6 production = assay: LPS-stimulated production of IL6 by PBMC; type: cell-based; conditions: result in words
# IL10 production = assay: Production of anti-inflammatory cytokine IL10 by PBMC; type: cell-based; conditions: result in words
# [3] = test system: patients with macular degeneration; assay: Clinical study in patients with macular degeneration, adjuvant to photodynamic therapy with verteporfin; type: in vivo, human; conditions: about 10 mg/day for 20 weeks as adjuvant to verteporfin photodynamic therapy
# Experimental: Immunomodulatory compounds are administered in an amount of about 0.1 to about 25 mg per day to patients with macular degeneration. In a specific embodiment, clinical studies are performed with forty patients with macular degeneration, who are divided into two groups. The first group receives conventional treatment for closing the leaking choroidal vessels (characteristic of this disease) by photodynamic therapy with verteporfin. Ophthalmol 1999 (117): 1329-1345.
# Progressive visual loss follows which requires the photodynamic therapy to be repeated.
IC50 (TNF-α production [1]) [nM],IC50 (TNF-α production [2]) [nM],Structure (SMILES),inhibition of LPS-stimulated production of IL1β by PBMC (IL1β production),inhibition of LPS-stimulated production of TNF-α by PBMC (TNF-α production [2]),inhibition of LPS-stimulated production of IL6 by PBMC (IL6 production),production of the anti-inflammatory cytokine IL10 (IL10 production),effect on neovascular cascade / duration of photodynamic therapy effect [3]
~25,~24,Nc1cccc2c1C(=O)N(C1CCC(=O)NC1=O)C2=O (stereo not shown),dose-dependent inhibition,dose-dependent inhibition,dose-dependent inhibition,increased production,
~480,~100,Nc1cccc2c1CN(C1CCC(=O)NC1=O)C2=O (stereo not shown),dose-dependent inhibition,dose-dependent inhibition,dose-dependent inhibition,increased production,sufficiently hindered
